Bridge positions count the residues as written; N and C are the ends. Ends that are not written are not given here.
What was measured:
[1] = tested on: Kaposi's Sarcoma induced in mice; assay: Kaposi's Sarcoma tumors induced in mice by KS Y-1 cells; format: in vivo; conditions: for KS in vivo: inhibition of Kaposi's Sarcoma induced in mice; for effect on KS tumors in mice (in words): mouse, in vivo
Experimental: The effects of the peptides on KS tumor cells were also evaluated in vivo in the KS mouse model. To induce KS tumors in the mice, 1×10^6/ml KS Y-1 cells in 50 μl PBS or saline were injected subcutaneously into immunodeficient mice (beige-XID-BNX mice). […] Methods for detection of apoptosis (from tissue biopsies) were used, as described in Lunardi-Iskandar et al.(1995, Nature 375:64-68). Briefly, the samples were stained in situ for the presence of cells with DNA fragmentation. Tissue slides from formalin-fixed tumors were treated with terminal deoxynucleotide transferase for extension of DNA ends (hydroxyl 3′) and incorporation of digoxigenin-11-dUTP according to the manufacturer's instructions (Oncor, Gaithersburg, Md.). Anti-digoxigenin antibody conjugated with the enzyme peroxidase allowed detection of apoptotic cells, which stain brown, whereas viable cells stain blue.
Certain fractions were tested for activity in reducing Kaposi's Sarcoma lesions in the Kaposi's Sarcoma mouse model as described herein. In this assay, starting one week after injection of the KS Y-1 cells to induce Kaposi's sarcoma formation, the mice were injected subcutaneously with 100 IU hCG. […] After one week of the week of treatment with the hCG fractions, the KS lesions were examined for cell apoptosis and regression as described herein.
Certain fractions of the APL™ hCG and early pregnancy urine were assayed for their ability to elicit apoptosis in Kaposi's Sarcoma lesions induced by injection of KS Y-1 cells in mice (n=3 mice for each treatment). The mice were administered 100 μl subcutaneously of the particular fraction each day for one week.

HIV-1 = conditions: for HIV in vitro Inhibition: inhibition of HIV-1 replication in vitro (HIV-1 strains and HIV-1 primary isolates)
Source text: To prepare HIV infected cells for the in vitro assay of hCG preparations and β-hCG peptides and derivatives, primary PBMCs, macrophages, and CD4^+ T cells isolated from peripheral blood and the H9 human T cell line, were acutely or chronically infected with 8 different HIV-1 strains: 4 cell line adapted viruses, namely the macrophage tropic Ba-L strain (Gartner et al., 1986, Science 233:215-219) and the CD4^+ T cell tropic MN, RF, and IIIB strains (10^5 TCID50/ml) (Popovic et al., 1984, Science […]; Gallo et al.; 1984, Science 224:500-503); 2 isolates, Ju1083 and G3, from Nigerian AIDS patients passed once in a CD4^+ T cell line (Sub-T1); and 2 primary (“clinical”) isolates from AIDS patients from Trinidad which were never passed in any cell line and were used at a titer of 7.5×10^4TCID50/ml. In all experiments; HIV1 (10^5 TCID50/ml) was added to the cells(10^6 cells/ml) for a 2 hour incubation after which the virus infected cells were washed with 10 ml phosphate buffered saline (PBS) three times to eliminate extra cellular virus. The test inhibitor, i.e. the hCG or β-hCG peptide preparation was then added and the cells were incubated with the test inhibiter for 9 to 10 days with serial sampling. Cultures were assayed for p24 antigen on days 3 to 10.
Peptides of the α- and β-subunits (0.05 to 50 nmoles/ml), native α chain preparation, and various crude preparations of the native hCG heterodimer (0.01 to 1,000 IU) and the native β-hCG subunit (100 to 1,000 μg) were tested for effects on HIV-1 replication in acutely infected cells-by measuring change in viral antigen levels in response to the above noted preparations (FIGS. 4A-D and Table 3).
The fractions were then tested for anti-HIV, anti-KS and pro-hematopoietic activities in vitro. To assay for inhibition of HIV-1 replication in vitro, the HIV-1 […] viral strain was used to infect PBMCs and PM-1 cells (derived from the HUT-78 T-cell lymphoma cell line) at 10^3 TCID50/ml as described in detail herein.

KS Y-1 and KS-SLK cells = assay: Kaposi's Sarcoma clonogenic assay in cultured cells; format: cell-based, human; conditions: for inhibition of KS cell growth in clonogenic assays (in words): KS Y-1 and KS SLK; for KS in vitro: inhibition of Kaposi's Sarcoma cell growth in vitro in cultured cells
Experimental: Briefly, the KS Y-1 cells were obtained from mononuclear cells isolated from pleural effusion of an AIDS patient with KS in the lungs. After the depletion of T lymphocytes, monocytes/macrophages and fibroblasts using monoclonal antibodies against CD2, CD3, CD4, CD8, CD10 and CD14 membrane antigens and baby rabbit complement, the cells were cultured in the absence of exogenous growth factors to select for transformed cells. […] Clonogenic assays were performed by seeding the KS Y-1 or KS-SLK cells in methylcellulose (0.8%, v/v), incubating the cells for 10 days in the presence or absence of the hCC, β-hCG or β-hCG peptide preparations and then counting the number of well-formed colonies of triplicate wells formed after seeding with 5×10^4 cells.
To assay for activity against Kaposi's sarcoma cell growth in vitro, the clonogenic assay described herein was used with the KS Y-1 and KS-SLK cultured Kaposi's Sarcoma cell lines,.

[2] = tested on: hematopoietic progenitor cells; assay: Hematopoietic progenitor clonogenic assays (CFU-GEMM, BFU-e, CFU-GM); format: cell-based, human; conditions: for Pro-hematopoiesis in vitro Enhancement: relative increase of hematopoietic colony cell number, hCG preparations 200 IU/ml, subunits and peptides 100 μg/ml
Experimental: The effect of hCG preparations and peptides was assayed on hematopoietic progenitor cells in vitro: Hematopoietic progenitor cells (2×10^5 cell/ml) were isolated from normal bone marrow and cord blood and seeded in methylcellulose. […] The hCG preparations were administered at 200 IU/ml and the β- and α-subunits and peptides were administered at 100 μg/ml. The native commercial preparation of hCG (APL™, Wyeth Ayerst) was pre-tested for anti-HIV and anti-KS activities. Aggregates containing more than 50 cells after 10 days of culture were counted as colonies.

[3] = tested on: HIV RNA and protein expression; assay: HIV RNA and protein expression in HIV-1 transgenic mice; format: in vivo; conditions: for HIV-1 gene / protein expression in transgenic mice (in words): pups dosed via mother's milk
Source text: The HIV-1 transgenic mice used for this study contain 7.4 kb of foreign DNA, including 5.1 kb of the HIV-1 proviral genome deleted in the gag and pol genes and 2.3 kb of vector (Dickie et al., 1991, Virology 185:109-119). […] In addition, these mice develop severe hyperkeratotic skin lesions with marked expression of gp 120 and nef genes (Kopp et al., 1993, AIDS Res. Hum. Retroviruses 9:267-275; Vasli et al., 1994, AIDS Res. Hum. Retroviruses 10:1241-1250).
Heterozygous transgenic mothers were treated with the hCG preparation subcutaneously twice weekly. Pups received hCG via the mother's milk.
Gene expression was assayed in total RNA extracted from the skin of Tg26 mice with RNAzol. One microgram of RNA was reverse transcribed into cDNA using random hexamer primers and […] reverse transcriptase (Life Technologies, MD) in a final volume of 30 μl. One tenth of the cDNA reactions were used for PCR amplification of various HIV gene sequences (env, tat, rev, nef and vif). In addition, glyceraldehyde 3-phosphate dehydrogenase (GAPHD) mRNA was amplified for each sample for normalization. Following 25 cycles of amplification, 10% of the PCR product was resolved by electrophoresis through 2% agarose gels and processed for Southern hybridization using FITC-labeled oligonucleotide probes complimentary to internal sequences of the amplicons. Detection was performed by chemiluminescence (Amersham) and relative mRNA levels determined by densitometry after normalization with GAPDH mRNA levels.
Finally, certain fractions were tested for their ability to increase survival, promote weight gain and reduce HIV-1 gene expression in HIV-1 transgenic mice as described herein.

Row | Substance | KS in vivo [1] | effect on KS tumors in mice (in words) [1] | inhibition of HIV-1 infection/replication in vitro (in words) (HIV-1) | HIV in vitro Inhibition (HIV-1) | inhibition of KS cell growth in clonogenic assays (in words) (KS Y-1 and KS-SLK cells) | KS in vitro (KS Y-1 and KS-SLK cells) | promotion of hematopoiesis (in words) [2] | Pro-hematopoiesis in vitro Enhancement [2] | inhibition of HIV RNA and protein expression ([3]; inhibition of HIV RNA and protein expression in HIV-1 transgenic mice) | HIV-1 gene / protein expression in transgenic mice (in words) [3]
1 | 1. 109-119: β-hCG amino acids 109-119 (SEQ ID NO:7) (TCDDPRFQDSS) | + (“+” represents greater than 15% effect) | some anti-KS activity | inhibit HIV-1 replication in vitro | + (“+” represents greater than 15% effect) | strongest anti-tumor effects | + (“+” represents greater than 15% effect) | directly promoted | + (“+” represents greater than 15% effect) | – | –
2 | 2. 109-145: β-hCG amino acids 109-145 (SEQ ID NO:25) (TCDDPRFQDSSSSKAPPPSLPSPSRLPGPSDTPILPQ) | + (“+” represents greater than 15% effect) | some anti-KS activity | inhibited HIV-1 replication | + (“+” represents greater than 15% effect) | strongest anti-tumor effects | + (“+” represents greater than 15% effect) | – | + (“+” represents greater than 15% effect) | – | –
3 | 5. 47-57::108-119: β-hCG 47-57 linked at the C-terminus to the N-terminus of 108-119 (SEQ ID NO:32) (GVLPALPQVVCLTCDDPRFQDSS) | +++ (“+++” represents greater than 70% effect) | significant anti-KS activity | inhibit HIV-1 replication in vitro | ++ (“++” represents greater than 40% effect) | strongest anti-tumor effects | ++ (“++” represents greater than 40% effect) | – | – | ++ (“++” represents greater than 40% effect) | –
4 | 9. 38-57: β-hCG amino acids 38-57 (CPTMTRVLQGVLPALPQVVC; UniProt P0DN86 58-77, looked up, fragment) | − (“−” represents less than 10% effect) | – | – | − (“−” represents less than 10% effect) | – | − (“−” represents less than 10% effect) | – | − (“−” represents less than 10% effect) | – | –
5 | 35. 1-15: α-hCG amino acids 1-15 (APDVQDCPECTLQEN; UniProt P01215 25-39, looked up, fragment) | − (“−” represents less than 10% effect) | – | – | – | – | − (“−” represents less than 10% effect) | – | − (“−” represents less than 10% effect) | – | –
6 | CVAQPGPQVLLVLC (cysteine pairing not given here) [11. Scrambled 45-57] | – | – | inhibitory effect | ++ (“++” represents greater than 40% effect) | exhibited activity | ++ (“++” represents greater than 40% effect) | – | – | – | some inhibition
7 | Cys-Val-Ala-Gln-Gly-Val-Leu-Pro-Ala-Leu-Pro-Gln-Val-Val-Cys (CVAQGVLPALPQVVC; disulfide 1-15 (inferred)) [12. Scrambled circ. 44-57] | – | – | – | − (“−” represents less than 10% effect) | – | − (“−” represents less than 10% effect) | – | − (“−” represents less than 10% effect) | – | no inhibitory effect
